Paper PMC12631831, “Painting Peptides With Antimicrobial Potency Through Deep Reinforcement Learning” (Advanced Science, 2025)
Ends that are not written are not given here.

How the values were obtained:
P.aeruginosa ATCC9027 = details: ATCC9027, 18 h
Procedure: (§1) Four standard bacteria used for the MIC test were Escherichia coli ATCC25922, Pseudomonas aeruginosa ATCC9027, Staphylococcus aureus ATCC6538, and Bacillus subtilis ATCC6633. The testing procedures followed the Hancock methods.^[ [67] ^] The peptides were diluted in sterilized PBS to 512 µM as storage solutions. Then twofold gradient dilution was performed to make different concentrations (128, 64, 32, 16, 8, 4, 2, 1, 0.5, 0.25, and 0.125 µM) of AMPs. Each bacteria was incubated in LB broth at 37 °C until its absorbance at 625 nm reached 0.08–0.10, then diluted 10,000 times and added into a sterile 96‐well polypropylene plate (Grenier, #655201). A co‐incubation system included 100 µL peptide solution and 100 µL bacterial suspension.

B.subtilis ATCC6633 = details: ATCC6633, 18 h
Procedure: as §1

E.coli ATCC25922 = details: ATCC25922, 18 h
Procedure: as §1

S.aureus ATCC6538 = details: ATCC6538, 18 h
Procedure: as §1

HEK293T cells = assay: Cytotoxicity assay (CellTiter-Glo); type: cell-based, human; details: 72 h, 1-128 µM, triplicate
Procedure: HEK293T cells were cultured in DMEM supplemented with 10% FBS and incubated at 37 °C with 5% CO2. After planting the cells into a 96‐well plate and incubated overnight, AMP solutions were added. The gradient dilution of AMPs followed the same setting as mentioned in the hemolysis assay. Staurosporine (STS) was used as a positive control and PBS as vehicle control. STS was diluted to 60, 12, 2.4, 0.48, 0.1, 0.02, 0.0038, and 0.0008 µM. After incubation for 72 h, the CellTiter‐Glo®Luminescent assay was performed to evaluate the cell viability. After equilibration to room temperature, the 96‐well plate containing treated cells was loaded with 100 µL CellTiter Glo (CTG, Promega) reagent each well. The plate was incubated for 30 mins, then detected by the EnVision system at a […]. Data were fitted and analyzed with GraphPad Prism 8. All tests were performed in triplicate.

rat erythrocytes = assay: Hemolysis assay; details: rat RBC 10% in PBS, 37 °C, 1 min, 1-128 µM, absorbance 450 nm, triplicate, fitted with GraphPad Prism 8
Procedure: In vitro hemolysis and cytotoxicity were measured by WuXi AppTec Co., ltd. The rat blood was collected and mixed in PBS, then centrifuged at 500 g for 5 mins to make the red blood cell solution (RBC, 10%). Two‐fold gradient dilution was performed to obtain different concentrations (128, 64, 32, 16, 8, 4, 2, and 1 µM) of AMP solutions. Then AMP solutions were added into 100 µL RBC to make the test solution and incubated at 37 °C for 1 min. The assay solution was centrifuged at 2500 g for 6 mins. After centrifugation, the 75 µL supernatant was placed into a 96‐well plate. PBS was used as the vehicle control and 0.1% Triton X‐100 was the positive control. The absorbance of the supernatant in each well was detected at 450 nm using EnVison (PerkinElmer) and the percentage of hemolysis was calculated as Equation (15). The HC25 value was fitted using GraphPad Prism 8. All tests were performed in triplicate. (15) Hemolysis%=AbsAMP−AbsPBS/AbsTritonX−100−AbsPBS×100

human erythrocytes = details: ref DBAASP; cited from earlier work

YKGFWRKIIYLIMMHAMKFMVWFLHLPKQ [R08]
MIC P.aeruginosa ATCC9027 (P.aeruginosa ATCC9027): > 128 µM
MIC B.subtilis ATCC6633 (B.subtilis ATCC6633): > 128 µM
MIC E.coli ATCC25922 (E.coli ATCC25922): > 128 µM
MIC S.aureus ATCC6538 (S.aureus ATCC6538): > 128 µM

LWRWKLLGRISVIIGKIKAALRLWF [R06]
MIC P.aeruginosa ATCC9027 (P.aeruginosa ATCC9027): > 128 µM
MIC B.subtilis ATCC6633 (B.subtilis ATCC6633): > 128 µM
MIC E.coli ATCC25922 (E.coli ATCC25922): > 128 µM
MIC S.aureus ATCC6538 (S.aureus ATCC6538): > 128 µM

KQQRKRGRVRKALLGKVIGFGGLKLKG [S08]
CC50 (concentration that reduces viability by 50%) (HEK293T cells): > 128 µM
HC25 (concentration that causes 25% hemolysis) (rat erythrocytes): > 128 µM

KWWKRRRWRWRWKKLWK [A04]
CC50 (concentration that reduces viability by 50%) (HEK293T cells): 49.63 µM
HC25 (concentration that causes 25% hemolysis) (rat erythrocytes): > 128 µM

WVQKKVIKLILKGLFALKLLG [S03]
CC50 (concentration that reduces viability by 50%) (HEK293T cells): > 64 µM
MIC P.aeruginosa ATCC9027 (P.aeruginosa ATCC9027): > 128 µM
MIC B.subtilis ATCC6633 (B.subtilis ATCC6633): > 128 µM
MIC E.coli ATCC25922 (E.coli ATCC25922): > 128 µM
MIC S.aureus ATCC6538 (S.aureus ATCC6538): 128 µM
HC25 (concentration that causes 25% hemolysis) (rat erythrocytes): > 128 µM

IKRRIRRRPIRRRQRR [S06]
MIC P.aeruginosa ATCC9027 (P.aeruginosa ATCC9027): > 128 µM
MIC B.subtilis ATCC6633 (B.subtilis ATCC6633): > 128 µM
MIC E.coli ATCC25922 (E.coli ATCC25922): > 128 µM
MIC S.aureus ATCC6538 (S.aureus ATCC6538): 128 µM

RKRVVWGKIFFRRR [S04]
MIC B.subtilis ATCC6633 (B.subtilis ATCC6633): 64 µM
MIC E.coli ATCC25922 (E.coli ATCC25922): 64 µM

RGWFKVKMRYIKRFMRGLRGFHIKAA [2-6]
MIC P.aeruginosa ATCC9027 (P.aeruginosa ATCC9027): 16 µM
MIC B.subtilis ATCC6633 (B.subtilis ATCC6633): 2 µM
MIC E.coli ATCC25922 (E.coli ATCC25922): 4 µM
MIC S.aureus ATCC6538 (S.aureus ATCC6538): 1 µM

GILFLKRLRILGIGKLLLLKR [S05]
MIC P.aeruginosa ATCC9027 (P.aeruginosa ATCC9027): > 128 µM
MIC B.subtilis ATCC6633 (B.subtilis ATCC6633): 64 µM
MIC E.coli ATCC25922 (E.coli ATCC25922): > 128 µM
MIC S.aureus ATCC6538 (S.aureus ATCC6538): 128 µM

GIKKWIKGWAKKLIKKVAKKIAKQ [A05]
MIC P.aeruginosa ATCC9027 (P.aeruginosa ATCC9027): 4 µM
MIC B.subtilis ATCC6633 (B.subtilis ATCC6633): 0.25 µM
MIC E.coli ATCC25922 (E.coli ATCC25922): 0.5 µM
MIC S.aureus ATCC6538 (S.aureus ATCC6538): 1 µM

WRWKGRWRRKLKKLRWKLKKKLKLG [A03]
CC50 (concentration that reduces viability by 50%) (HEK293T cells): 21.67 µM
HC25 (concentration that causes 25% hemolysis) (rat erythrocytes): > 128 µM

AFHHIFRGIVHVGKTIHRLVTG [Piscidin 1 [F1A], reference compound]
Concentration for 100% hemolysis (human erythrocytes): 100 µM
MIC P.aeruginosa (P.aeruginosa ATCC9027): > 128 µM
MIC B.subtilis (B.subtilis ATCC6633): 4 µM
MIC E.coli (E.coli ATCC25922): 16 µM
MIC S.aureus (S.aureus ATCC6538): 4 µM

WWWHLRIWLKKKHQKAQWKKFGWFMKQHH [R05]
MIC P.aeruginosa ATCC9027 (P.aeruginosa ATCC9027): 128 µM
MIC B.subtilis ATCC6633 (B.subtilis ATCC6633): 8 µM
MIC E.coli ATCC25922 (E.coli ATCC25922): > 128 µM
MIC S.aureus ATCC6538 (S.aureus ATCC6538): 2 µM

RWWRGWWRRKLKKLRKKLKKKLKGM [A01]
CC50 (concentration that reduces viability by 50%) (HEK293T cells): 11.62 µM
HC25 (concentration that causes 25% hemolysis) (rat erythrocytes): 14.66 µM

DGWTMVKARYIKRFMRGLRGFHIKAA [2-1]
MIC P.aeruginosa ATCC9027 (P.aeruginosa ATCC9027): > 128 µM
MIC B.subtilis ATCC6633 (B.subtilis ATCC6633): 8 µM
MIC E.coli ATCC25922 (E.coli ATCC25922): 8 µM
MIC S.aureus ATCC6538 (S.aureus ATCC6538): 16 µM

WIPKRFGIVIKRFYYRPFYPLFQ [R07]
MIC P.aeruginosa ATCC9027 (P.aeruginosa ATCC9027): > 128 µM
MIC B.subtilis ATCC6633 (B.subtilis ATCC6633): > 128 µM
MIC E.coli ATCC25922 (E.coli ATCC25922): > 128 µM
MIC S.aureus ATCC6538 (S.aureus ATCC6538): 128 µM

FFHHIFRKIHHVFKKIHRLFHH [A09]
MIC P.aeruginosa ATCC9027 (P.aeruginosa ATCC9027): > 128 µM
MIC B.subtilis ATCC6633 (B.subtilis ATCC6633): 4 µM
MIC E.coli ATCC25922 (E.coli ATCC25922): 64 µM
MIC S.aureus ATCC6538 (S.aureus ATCC6538): 8 µM

GRKKRRRRRRGGWWWKLGLRWF [A08]
MIC P.aeruginosa ATCC9027 (P.aeruginosa ATCC9027): > 128 µM
MIC B.subtilis ATCC6633 (B.subtilis ATCC6633): 64 µM
MIC E.coli ATCC25922 (E.coli ATCC25922): > 128 µM
MIC S.aureus ATCC6538 (S.aureus ATCC6538): 64 µM
